Test: Powder particle size by Helos laser particle size analyzer with Quixel disperser
Type: physicochemical
Method: The powders particle size was measured using a Helos laser particle size analyzer equipped with a Quixel disperser (instrument and disperser manufactured and sold by the company Sympatec GmbH of Clausthal-Zellerfeld, Germany), using ultrapure milli-Q water as the dispersing medium. The sample was first dispersed in milli-Q water by adding a few drops of Tween® 80 (polyethylene glycol sorbitan monooleate, sold by Merck) and placed in a sonicating bath for 5 min, then the suspension was added to the dispersing medium loaded into the instrument until an optical density value OD=4-15% is obtained. The measurement (30 s background +30 s measurement) was performed by operating under continuous sonication with the recirculation pump set at 20%.

## C[C@]12CCC(=O)C=C1[C@@H]1C[C@@H]1[C@H]1[C@@H]3[C@@H]4C[C@@H]4[C@@]4(CCC(=O)O4)[C@@]3(C)CC[C@@H]12 [Drospirenone, 17β-hydroxy-6β, 7β; 15, 16β-dimethylene-3-oxo-17α-pregn-4-ene-21-carboxylic acid γ-lactone]
Crystalline Form I powder of Example 3 (process of the invention), FIG. 9, cumulative curve
  size of all particles: lower than 110 μm
Crystalline Form I powder of Example 4 (comparative), FIG. 10
  size of the largest particles present: over 150 μm
Crystalline Form I powder of Example 4 (comparative, no transformation to Form II), FIG. 10
  peak of the sample particles size distribution: about 70 μm
